These antisense oligonucleotides have a phosphorothioate backbone; sugars and methylation of C are not fully specified.
Target: ITGB3
Conditions: ASO
Also: test concentration or dose not given here.

| Sequence | remaining target (mRNA or protein) (fraction of control) |
| --- | --- |
| AGACAACTCTTCAGGGAG | 0.62 |
| CATTCCTCCAGCCAATCT | 0.6 |
| TGTCCCATTTTGCTCTGG | 0.53 |
| AGAAGTCGTCACACTCGC | 0.72 |
| TCACCGTGTCTCCAATCT | 0.53 |
| ACACACACATAAACACAC | ≥ 1 |
| GCCCATTGCTGGACATGC | ≥ 1 |
| GCATCTCGTCCGCCTCCC | 0.44 |
| GTGATGAGGAGTTTCCAG | 0.98 |
| ACCACATACAGGATGGAC | ≥ 1 |
| AGGCATCTGGGCAGGTGG | 0.9 |
| GCCCCGAAGCCAATCCGC | ≥ 1 |
| AAGCGGGTCACCTGGTCA | ≥ 1 |
| AAGGTAGACGTGGCCTCT | 0.71 |
| TCTCACTGAGGTAATGAA | 0.66 |
| ACGACACAGTCATCCTCA | ≥ 1 |
| AGAGATTGACTACATTTT | 0.93 |

Target: MAP2K6
Conditions: ASO

| Sequence | remaining target (mRNA or protein) (fraction of control) |
| --- | --- |
| GAATTTATCTAGTGATGTAT | ≥ 1 |
| GTTTCTCTTGACCGATGCAG | 0.55 |
| TATCAAAGAATTACTCACTA | 0.85 |
| CAAGTGTCAGAAGAACCAAA | 0.7 |
| GATGCATATTAAATAATTTC | 0.83 |
| GAGACATTTTCCCCTTTCCT | 0.66 |
| CCTTTCGACTGAGACATTTT | ≥ 1 |
| CTACAAATCTACTTATAATT | 0.99 |
| CTTGCCTTTCGACTGAGACA | 0.58 |
| CAGTTCATTCTATACTATAG | 0.7 |
| CGCTGCTGAAGAAAGATGCG | 0.85 |
| GGTGGGCCGAACCAGAAGCC | ≥ 1 |
| TTTTCCCCTTTCCTTTGATG | ≥ 1 |
| GACTGAGACATTTTCCCCTT | 0.88 |
| AGAAGAAAACAAACAAACAA | 0.82 |
| TCTGTAGCTAGTTTTGCAAC | 0.88 |
| TTGGAGTCTAAATCTCTAGG | ≥ 1 |
| CTTCACCCCGAAACCCACCA | 0.34 |
| TATTTTCCCTGTCAATTACT | 0.99 |
| AAGAGAGGATTCAGGGAAGC | ≥ 1 |

| Sequence | remaining target (mRNA or protein) (fraction of control) |
| --- | --- |
| ACACATGGCAGGAGGGACAA | 0.78 |
| TGCCTTTCGACTGAGACATT | 0.67 |
| CATTTTCCCCTTTCCTTTGA | ≥ 1 |
| AATTTTAAGGCCAGGGTTTC | ≥ 1 |
| GCCAGGGCTGGCAGCTAAAA | 0.8 |
| GCCATAAAAGGTGACAGTGA | 0.86 |
| CTGAGACATTTTCCCCTTTC | 0.91 |
| TTTCGACTGAGACATTTTCC | ≥ 1 |
| CCCTAAAAGATGTGGTGATC | ≥ 1 |
| ATCTGTTCCTTTGGATTCAT | 0.73 |
| TATGTAGGCCGTTCTTTGGA | 0.95 |
| CATTAGAAGGCTTGACGTCT | 0.67 |
| GGAAATCGAAGGATGGCCAA | ≥ 1 |
| GACATTTTCCCCTTTCCTTT | 0.85 |
| TTAGTCTCCAAGAATCAGTT | 0.96 |
| TCGACTGAGACATTTTCCCC | 0.8 |
| CGAGAAAGAACTTTTGCTGT | ≥ 1 |
| GTTTCTGTTCCTGGCTATTT | 0.79 |
| GTGAATTGCCAAATAGACAC | 0.8 |
| GCTCCAGGTCATCTGCCTTC | 0.65 |

Target: PCK2
Conditions: ASO

| Sequence | remaining target (mRNA or protein) (fraction of control) |
| --- | --- |
| GGACAGTCTTTGTGGGAAGG | ≥ 1 |
| GGTGATGCCCAGGATCAGCA | 0.78 |
| TTAAAATAGATAAGCATCTC | ≥ 1 |
| TGGGTGTCTCTCGGGCACTG | 0.9 |
| GGCACTAGGGAAGGCGGCTG | 0.84 |
| CTTGCCCAGCAGGGAGTTGC | ≥ 1 |
| GGCGGTACAATGCGGCCATG | 0.81 |
| CCGGGCCAGCCGAGAGGCGA | ≥ 1 |
| AAGATGTTAGTTAATATCAA | ≥ 1 |
| CACTTGACAAAGTCACCATC | ≥ 1 |
| TGATCTCCCGCTGGTCGGGC | 0.73 |
| ACCAGGCGGGAGTGGTACCG | 0.84 |
| CACCGTCTTGCTCTCTACTC | 0.85 |
| GTAGTGCCCGAAGTTGTAGC | 0.77 |
| GGCAGATCCTGGTTGACCTG | 0.81 |
| CTTTGTGTTCTGCTGCAGCA | 0.49 |
| CCAGTCGGGTCATAATACGC | 0.74 |
| TGCCTTCCCTATTCCCAGAT | 0.82 |
| AGGAACCGAGCGGAGCCGGG | 0.68 |
| GAGCATTCTCCCCAAAGCCT | 0.95 |

| Sequence | remaining target (mRNA or protein) (fraction of control) |
| --- | --- |
| GAGCTGCACCCCGATGCGGG | ≥ 1 |
| TCACGAACCTCCTGTTCCCA | 0.6 |
| GCGTTGGGATTGGTGGTGGC | 0.82 |
| CTGCATGCAGCCTGGAAACC | 0.83 |
| GGGCCTCCCAGGCTGGGTCC | ≥ 1 |
| GGCCCGGAGTCGACCTTCAC | 0.68 |
| GCTACGGCATGATGGCCAGC | 0.89 |
| TCACGCCGGAACCAGTTGAC | ≥ 1 |
| TCGGATGAGGCCCTGCTGCT | 0.86 |
| AGTACACGCCACCATCACTG | 0.91 |
| TGCGGCCATGGCACCTGGGC | 0.55 |
| TGAGGCCGCTGAGATCCAAG | 0.67 |
| TTGCACGGCCACTGGCTCAC | 0.94 |
| TTTCCAGGGTTTGCCCAGCC | 0.55 |
| CCCACAAACACCCCATGACG | 0.35 |
| TCACATTTTGTGCACACGTC | 0.76 |
| AGACTAGGCCTCAGGTCACA | ≥ 1 |
| AATGCCAGTGGGAAGCTGGC | 0.88 |
| TCCATCACAGATGTGGATGC | 0.87 |
| TCCAGCCTGGCAGTGCAGGC | 0.75 |

Target: SMAD2
Conditions: ASO

| Sequence | remaining target (mRNA or protein) (fraction of control) |
| --- | --- |
| TGTTGGTCACTTGTTTCT | 0.58 |
| ACTGTAGAGGTCCATTCA | 0.42 |
| TATTACAGTTTTGAGTGG | 0.52 |
| TAAACCTAAGCAGAACCT | 0.37 |
| CGTGAATGGCAAGATGGA | 0.47 |
| TTCGATGGGATACCTGGA | 0.99 |
| AGATTACAGCCTGGTGGA | 0.57 |
| GAGACCTGGTTTGTTCAG | 0.46 |
| AATGCTATGACAGAAGAG | 0.76 |
| CTCTCCTCCGCCTGCTCC | 0.01 |
| GAGAGCCTGTGTCCATAC | 0.29 |
| TGCTCCTCCAGACCCACC | 0.01 |
| CACCCTTTCACAAAACTC | 0.15 |
| CTAATCGTCCTGTTTTCT | 0.33 |
| CTTCACCAGACTTTTCAC | 0.15 |
| CAGGTTCTGAGTAAGTAA | 0.54 |
| GGAAAGAGTAGTAGGAGA | 0.48 |
| TCTCTGATAGTGGTAAGG | 0.49 |
| AAACTTCCCCACCTATGT | 0.18 |
| GATAGTAAACAGTCCATA | 0.5 |

| Sequence | remaining target (mRNA or protein) (fraction of control) |
| --- | --- |
| AAAGCCATCTACAGTGAG | 0.34 |
| GTTTCTCCAACCCTCTGA | 0.2 |
| AAACAGCCTCTTGTATCG | 0.29 |
| ACAGATTCCACAAGGTGC | 0.22 |
| GGCAAAACTGGTGTCTCA | 0.26 |
| GAGGTGGCGTTTCTGGAA | 0.29 |
| TCACTGCTTTCTCACACC | 0.08 |
| AGCTGCTTCTCCGCCGCC | 0.27 |
| GGTAACACATTTAGTATT | 0.48 |
| GAGTGGTGATGGCTTTCT | 0.4 |
| TTAGTGTTTTCTGGAATG | 0.48 |
| CCTTCTTGTCATTTCTAC | 0.57 |
| AAGTGCTTGGTATGGTAA | 0.43 |
| TAACATTGGAGAGTAAAC | 0.54 |
| CTTCCATCCCAGCAGTCT | 0.1 |
| TTCCTGCCCATTCTGCTC | 0.08 |
| CTCACACCACTTTTCTTC | 0.1 |
| CTCTTCACAACTGGCGGC | 0.16 |
| CTGAGCCAGAAGAGCAGC | 0.18 |
| GCGGAAGTTCTGTTAGGA | 0.43 |

Reference: the OligoGym collection
